# Columns and labels:
# GR mRNA in LREX′ cells = GR mRNA in LREX′ cells cultured in vitro; assay type: cell-based, human
# [1] = tested on: AR target genes in LREX′ cells; assay: Expression of AR target genes in LREX′ cell line in steroid depleted media (RT-qPCR); assay type: cell-based, human
# Source text: A. Normalized expression array signal (Illumina HT-12) of a suite of 74 AR target genes in control (n=10), 4 day (n=8), and LREX′ (n=8, right) xenograft tumors. Genes are ranked by degree of restoration of expression in resistant tissue ((Res-4 day)/(Control-4 day)). All resistant tissues were continued on anti-androgen treatment through time of harvest. B. Fractional restoration values of each of the 74 AR targets in LREX′ xenografts (n=8) or resistant tissues from the validation cohort (n=12). C. GR mRNA in resistant tissues used in B. D. Expression of AR target genes in the LREX′ cell line in steroid depleted media after 8 hours of treatment with the indicated agonists, in vitro. […] A. LnCaP/AR cells engineered to express GFP or GR were treated with indicated drugs. […] D. Control or AR siRNA knock-down in LREX′ followed by treatment with indicated drugs. […] Cells were treated in charcoal stripped media. Expression determined by RT-qPCR+/−s.e.m.
# LREX′ cells were derived from a single enzalutamide resistant tumor that was harvested, disaggregated with collagenase treatment, and then maintained in RPMI supplemented with 20% FBS and 1 μM enzalutamide. Cells were initially grown on collagen-coated flasks until confluent and then were maintained on standard tissue culture dishes. CS1 were similarly derived from vehicle treated tumors and maintained in standard LNCaP/AR media. LNCaP/AR and LREX′ cells were cultured in phenol-red free RPMI with 10% charcoal-stripped FBS prior to drug treatments.
# [2] = tested on: AR target gene expression; assay: AR target gene expression with GR antagonists; assay type: cell-based
# [3] = tested on: LNCaP/AR xenograft tumors; assay: LNCaP/AR xenograft pilot cohort, continual antiandrogen treatment until acquired resistance
# GR = GR (Homo sapiens, UniProt P04150); conditions: patients with Cushing syndrome; cited from earlier work
# VCaP cells = assay: VCaP cell viability by CellTiter-Glo; assay type: cell-based; conditions: Enz 10 micromolar, standard culture conditions
# Description: Enz=10 micromolar, Dex=100 nM, CMP 15=1 micromolar. A. Western blot analysis of prostate cancer cell lines. B, C and D. Cell viability assessed by CellTiter-Glo (Promega) assay and normalized to day 1 value after indicated treatments+/−s.e.m. E. Confirmation of GR knock-down by western blot after infection with GR targeting shRNA. F. Apoptosis as assessed by cPARP western blot after 3 days of indicated treatment. G. A suite of AR targets relevant to VCaP was defined (see methods) and normalized expression of each gene after 24 hours of indicated drug treatments is depicted by heat map and ranked by degree of induction with Dex. H. Expression of the top two genes from B. (KLK2 and FKBP5) after 24 hours of indicated treatments+/−s.e.m.
# VCaP: Cells were plated in triplicate and then assayed in triplicate at the time points indicated using CellTiter-Glo (Promega). Viability is plotted normalized to day 1. For knockdown studies, cells were infected and then plated 3 days later for the experiment without prior drug selection. LnCaP/AR and sub-lines: Equivalent numbers of cells were plated and then harvested and counted in triplicate at indicated time points using the Beckman Coulter Vi-Cell XR. Cells were passaged at each time point and identical numbers of cells re-plated. Fold increase in cell numbers were determined for each time interval. […]
# [4] = tested on: GR protein in CS1 or LnCaP/AR cells; assay: Intracellular GR flow cytometry of CS1 and LnCaP/AR cells under enzalutamide; conditions: enzalutamide 1 micromolar, 4 week experiment
# Description: (§1) Cells were re-suspended in Fixation/Permeabilization working solution (eBioscience; San Diego, Calif., USA) at a concentration of 1-2×10^6 cells/ml for 30 minutes at room temperature. The cells were subsequently stained with primary antibodies, Rabbit (DA1E) mAb IgG XP® Isotype Control, androgen receptor (D6F11) XP® Rabbit mAb, or glucocorticoid receptor (D6H2L) XP® Rabbit mAb (Cell Signaling Technology; Danvers, Mass., USA) for 20 minutes at room temperature. The cells were washed twice with Flow Cytometry Staining Buffer (eBioscience; San Diego, Calif., USA), and then stained with secondary antibody, Allophycocyanin-AffiniPure F(ab′)2 Fragment Donkey Anti-Rabbit IgG (Jackson ImmunoResearch Laboratories, Inc.; Westgrove, Pa., USA) for 20 minutes at room temperature. Following two more washes, the cells were re-suspended in Flow Cytometry Staining Buffer and analyzed by flow cytometry on a LSRII (BD Biosciences; San Jose, Calif., USA) using FlowJo software (Tree Star, Ashland, Oreg., USA). For GR staining, cells were maintained in their standard media and treated with dexamethasone for 20 minutes prior to harvest to fully expose antigen. For AR staining, cells were cultured in charcoal stripped media without added ligands for 3 days prior to harvest.
# LnCaP/AR and sub-lines = assay: In vitro growth by cell counting (Vi-cell); assay type: cell-based; conditions: 1 micromolar enzalutamide
# Description: . […] C. […] AUC=area under curve. […] .
# VCaP: Cells were plated in triplicate and then assayed in triplicate at the time points indicated using CellTiter-Glo (Promega). Viability is plotted normalized to day 1. For knockdown studies, cells were infected and then plated 3 days later for the experiment without prior drug selection. LnCaP/AR and sub-lines: Equivalent numbers of cells were plated and then harvested and counted in triplicate at indicated time points using the Beckman Coulter Vi-Cell XR. Cells were passaged at each time point and identical numbers of cells re-plated. Fold increase in cell numbers were determined for each time interval.
# [5] = mouse, in vivo; cited from earlier work
# PSA = assay: Maximal PSA decline in patients receiving enzalutamide; assay type: in vivo; conditions: enzalutamide 160 mg daily
# Description: Patients were treated with enzalutamide 160 mg daily. Bone marrow biopsy and aspirate (˜5 mL) were performed before treatment and at week 8. The bone marrow specimens were obtained by transiliac biopsy, and samples were processed according to standard MD Anderson Cancer Center decalcification and fixation procedures. After pathologic evaluation, samples were stored in the MD Anderson Cancer Center Prostate Cancer Tissue Bank. Imaging studies were performed at the time of suspected prostate cancer progression or at the treating physician's discretion, but generally not prior to 12 weeks post-treatment initiation. […] Retrospective analysis for GR was performed by IHC on […] formalin-fixed, paraffin-embedded bone marrow biopsy sections with anti-GR at a dilution of 1:200 (BD Transduction Laboratories #611227). A Dako autostainer and standard 3,3-diaminobenzidine were used. GR expression was assessed in a blinded fashion by two pathologists scoring at least 100 tumor cells per specimen. […]
# To determine whether GR expression is a feature of clinical antiandrogen resistance, GR expression was evaluated in bone metastases from patients receiving enzalutamide. […] Using a GR IHC assay optimized for use in bone marrow samples, the percentage of GR-positive tumor cells was quantified and the data was dichotomized based on clinical response. […]
# [6] = tested on: GR protein in LREX′ cells; assay: Intracellular GR flow cytometry of LREX′ cells on enzalutamide withdrawal and re-exposure; conditions: LREX′off cells re-exposed to enzalutamide 1 micromolar
# Description: as §1
# [7] = tested on: LREX′ cells transcriptome; assay: Expression profiling of LREX′ cells after DHT or Dex, AR and GR signatures; assay type: cell-based, human; conditions: enzalutamide 10 micromolar
# [8] = list continues over r20-r28; cited from earlier work
# [9] = in vivo; cited from earlier work
# [10] = steroid depleted media, 8 hours
# [11] = harvest after progression on continued treatment
# GR, sequence (P04150 whole entry): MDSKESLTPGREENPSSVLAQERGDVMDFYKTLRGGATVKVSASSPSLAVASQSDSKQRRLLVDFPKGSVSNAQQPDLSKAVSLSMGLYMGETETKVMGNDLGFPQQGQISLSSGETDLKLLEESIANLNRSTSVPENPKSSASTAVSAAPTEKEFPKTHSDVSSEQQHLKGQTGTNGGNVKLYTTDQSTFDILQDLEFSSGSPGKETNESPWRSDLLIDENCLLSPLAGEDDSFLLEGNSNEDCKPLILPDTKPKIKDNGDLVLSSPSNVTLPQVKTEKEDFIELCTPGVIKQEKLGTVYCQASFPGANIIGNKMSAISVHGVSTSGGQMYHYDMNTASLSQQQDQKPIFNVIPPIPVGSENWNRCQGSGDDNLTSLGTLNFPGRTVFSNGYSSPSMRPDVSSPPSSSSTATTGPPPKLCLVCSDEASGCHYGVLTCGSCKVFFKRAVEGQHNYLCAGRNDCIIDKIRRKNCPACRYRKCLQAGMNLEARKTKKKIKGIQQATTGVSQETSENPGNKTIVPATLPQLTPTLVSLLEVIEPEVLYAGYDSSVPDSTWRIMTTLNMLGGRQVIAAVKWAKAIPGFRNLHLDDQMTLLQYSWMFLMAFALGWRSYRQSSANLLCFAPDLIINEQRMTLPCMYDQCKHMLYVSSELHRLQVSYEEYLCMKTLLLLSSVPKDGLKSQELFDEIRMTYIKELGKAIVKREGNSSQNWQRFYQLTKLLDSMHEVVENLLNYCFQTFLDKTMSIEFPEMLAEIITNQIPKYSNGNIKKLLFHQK
compound,measurement,setting,value
"C[C@]12CCC(=O)C[C@@H]1CC[C@@H]1[C@@H]2CC[C@]2(C)[C@@H](O)CC[C@@H]12 [DHT, dihydrotestosterone]",GR mRNA levels,"GR mRNA in LREX′ cells; LREX′, charcoal stripped media, 8 hours DHT exposure",reduced GR mRNA levels
same,induction of KLK3 (PSA),[1]; [10],comparably induced
same,regulation of 8 genes (7 AR targets and PSA),[1]; [10],regulated
CC#C[C@]1(O)CC[C@H]2[C@@H]3CCC4=CC(=O)CCC4=C3[C@@H](c3ccc4c(c3)OCO4)C[C@@]21C [ORG 34517],AR target gene expression,[2],activate AR target gene expression
CNC(=O)c1ccc(N2C(=S)N(c3ccc(C#N)c(C(F)(F)F)c3)C(=O)C23CCC3)cc1F [RD162],% Regression: D 28 Mean,"[3]; LNCaP/AR xenografts in castrate mice, 10 mg/kg oral, day 28",80%
same,Day of Harvest: Mean,[3]; [11],D173
same,Mean Tumor Volume (mm^3) at harvest,[3]; [11],554 mm^3
"CC#C[C@]1(O)CC[C@H]2[C@@H]3CCC4=CC(=O)CCC4=C3[C@@H](c3ccc(N(C)C)cc3)C[C@@]21C [RU486, RU-486]",risk-benefit profile of GR inhibition in humans,GR,acceptable risk-benefit profile
CNC(=O)c1ccc(N2C(=S)N(c3ccc(C#N)c(C(F)(F)F)c3)C(=O)C2(C)C)cc1F [enzalutamide],growth of VCaP cells,VCaP cells,inhibited growth
same,median GR expression intensity,[4],no change in median expression intensity
same,antiproliferative effect in vitro,LnCaP/AR and sub-lines,weak antiproliferative effect
same,half-life in mice,[5],prolonged half-life
same,patients with maximal PSA decline greater than 50%,PSA; good responders (benefit > 6 months),11 of 13
same,patients with maximal PSA decline greater than 50%,PSA; poor responders (discontinued < 6 months),1 of 14
same,doubling time of GR expression induction,[6],6.8 days
same,GR mRNA levels after enzalutamide withdrawal in vitro,"GR mRNA in LREX′ cells; LREX′ cells, FBS media without enzalutamide, 23 days",dropped as early as 1 day after discontinuation
same,effect of co-treatment on DHT reduction of GR mRNA,"GR mRNA in LREX′ cells; LREX′, 10 micromolar enzalutamide, 8 hours",reversed
same,effect on Dex-induced gene expression (heatmap),[7],not impacted
same,effect on DHT regulation of 8 AR target genes,[1]; enzalutamide 10 micromolar,blocked
same,effect on Dex activity,[1]; enzalutamide 10 micromolar,did not notably affect
CC(C)C(=O)Nc1ccc([N+](=O)[O-])c(C(F)(F)F)c1 [flutamide],Adverse Drug Reactions,[8],"Hot flushes, loss of libido, impotence,"
same,Distribution: Protein-binding,[9],Distribution: Protein-binding: 90%
same,Excretion,[9],"Urine, faeces (small amounts)"
